Measurements from patent US12391692B2, “Spiro ring-containing quinazoline compound” (WIGEN BIOMEDICINE TECHNOLOGY (SHANGHAI) CO., LTD., priority 2020, dated 2025).

Legend:
pERK level in H358 cells = experiment: pERK and ERK protein content assay in H358 cells (ELISA); format: cell-based; conditions: Homo sapiens, NCI-H358, pERK/ERK ratio vs DMSO group, compound 1 μM, 24 h, read-out: Inhibition rate (%)
Method: H358 cells were seeded in a 24-well plate. After one day of growth, a test compound (at a concentration of 1 μM) was added. After 24 h of action of the compound, the cells were lysed, and the cell lysate was transferred to a 96-well ELISA plate. The levels of pERK and ERK in the lysate were measured using an ELISA kit (abcam 176660). The ratio of pERK to ERK was calculated and compared with that of the DMSO group, and the percentage of inhibition of pERK activity by the compound was calculated.

H358 cells = experiment: Antiproliferative activity against H358 cells (Cell Titer Glow, ultra-low attachment plate); format: cell-based; conditions: Homo sapiens, NCI-H358, 72 h, three days after addition of compound
Method: 2500 H358 cells were seeded in a 96-well ultra-low attachment plate (corning, 7007). After one day of growth, a serially diluted compound (a maximum concentration of 5 μM, 5-fold dilution, a total of five doses) was added. Three days after the addition of the compound, Cell Titer Glow (Promega, G9681) was added to evaluate pellet growth, and the IC50 value was calculated.

SMILES	inhibition at 1 µM (pERK level in H358 cells)	IC50 (H358 cells)
C=CC(=O)N1CC2(CCN(c3nc(N4CC(CC#N)(N5CCOCC5)C4)nc4c(OCC(F)(F)F)c(-c5c(C)ccc6[nH]ncc56)c(C5CC5)cc34)CC2)C1 [Compound 56]	> 90%	< 300 nM
C=CC(=O)N1CC2(CCN(c3nc(N4CC(C)(N5CCCC5)C4)nc4c(OCC(F)(F)F)c(-c5c(C)ccc6[nH]ncc56)c(C5CC5)cc34)CC2)C1 [Compound 61]	> 90%	< 300 nM
C=CC(=O)N1CC2(CCN(c3nc(N4CC(N5CCS(=O)(=O)CC5)C4)nc4c(OCC(F)(F)F)c(-c5c(C)ccc6[nH]ncc56)c(C5CC5)cc34)CC2)C1 [Compound 27]	50 to 90%	300 to 1000 nM
C=CC(=O)N1CC2(CCN(c3nc(N4CC(N5CC=CCC5)C4)nc4c(OCC(F)(F)F)c(-c5c(C)ccc6[nH]ncc56)c(C5CC5)cc34)CC2)C1 [Compound 43]	50 to 90%	> 1000 nM
C=CC(=O)N1CC2(CCN(c3nc(N4CC(N5CC6(CC6)C5)C4)nc4c(OCC)c(-c5c(C)ccc6[nH]ncc56)c(C5CC5)cc34)CC2)C1 [Compound 97]	> 90%	< 300 nM
C=CC(=O)N1CC2(CCN(c3nc(O[C@H]4C[C@H](N5CCC5)C4)nc4c(OCC(F)(F)F)c(-c5c(C)ccc6[nH]ncc56)c(C5CC5)cc34)CC2)C1 [Compound 88]	50 to 90%	300 to 1000 nM
C=CC(=O)N1CC2(CCN(c3nc(N4CC5(CCN5CC5CC5)C4)nc4c(OCC(F)(F)F)c(-c5c(C)ccc6[nH]ncc56)c(C5CC5)cc34)CC2)C1 [Compound 69]	> 90%	< 300 nM
C=CC(=O)N1CC2(CCN(c3nc(N4CC(C)(CN(C)C)C4)nc4c(OCC(F)(F)F)c(-c5c(C)ccc6[nH]ncc56)c(C5CC5)cc34)CC2)C1 [Compound 62]	> 90%	< 300 nM
C=CC(=O)N1CC2(CCN(c3nc(N4CC(N5CC6(CCOCC6)C5)C4)nc4c(OCC(F)(F)F)c(-c5c(C)ccc6[nH]ncc56)c(C5CC5)cc34)CC2)C1 [Compound 33]	50 to 90%	300 to 1000 nM
C=CC(=O)N1CC2(CCN(c3nc(O[C@H]4C[C@H](N5CC6(CCC6)C5)C4)nc4c(OCC(F)(F)F)c(-c5c(C)ccc6[nH]ncc56)c(C5CC5)cc34)CC2)C1 [Compound 96]	> 90%	300 to 1000 nM
C=CC(=O)N1CC2(CCN(c3nc(N4CC(COC)C4)nc4c(OCC(F)(F)F)c(-c5c(C)ccc6[nH]ncc56)c(C5CC5)cc34)CC2)C1 [Compound 9]	> 90%	< 300 nM
C=CC(=O)N1CC2(CCN(c3nc(N4CC(N5CC6(CN(C)C6)C5)C4)nc4c(OCC(F)(F)F)c(-c5c(C)ccc6[nH]ncc56)c(C5CC5)cc34)CC2)C1 [Compound 32]	> 90%	< 300 nM
C=CC(=O)N1CC2(CCN(c3nc(N4CC5(CCCN5CCOC)C4)nc4c(OCC(F)(F)F)c(-c5c(C)ccc6[nH]ncc56)c(C5CC5)cc34)CC2)C1 [Compound 74]	> 90%	< 300 nM
C=CC(=O)N1CCC2(CC1)CN(c1nc(N3CC(N4CC5(CC5)C4)C3)nc3c(OCC(F)(F)F)c(-c4c(C)ccc5[nH]ncc45)c(C4CC4)cc13)C2 [Compound 102]	> 90%	< 300 nM
C=CC(=O)N1CC2(CCN(c3nc(N4CC(N(C)CCO)C4)nc4c(OCC(F)(F)F)c(-c5c(C)ccc6[nH]ncc56)c(C5CC5)cc34)CC2)C1 [Compound 21]	> 90%	< 300 nM
C=CC(=O)N1CC2(CCN(c3nc(N4CCOC5(CN(CCOC)C5)C4)nc4c(OCC(F)(F)F)c(-c5c(C)ccc6[nH]ncc56)c(C5CC5)cc34)CC2)C1 [Compound 84]	50 to 90%	300 to 1000 nM
C=CC(=O)N1CC2(CCN(c3nc(N4CCC(N5CC6(CC6)C5)CC4)nc4c(OCC(F)(F)F)c(-c5c(C)ccc6[nH]ncc56)c(C5CC5)cc34)CC2)C1 [Compound 38]	> 90%	300 to 1000 nM
C=CC(=O)N1CC2(CCN(c3nc(N4CC(N(C)CC#N)C4)nc4c(OCC(F)(F)F)c(-c5c(C)ccc6[nH]ncc56)c(C5CC5)cc34)CC2)C1 [Compound 20]	50 to 90%	300 to 1000 nM
C=CC(=O)N1CC2(CCN(c3nc(N4CC5(CC(OC)CN5CC)C4)nc4c(OCC(F)(F)F)c(-c5c(C)ccc6[nH]ncc56)c(C5CC5)cc34)CC2)C1 (centres unmarked) [Compound 124]	> 90%	< 300 nM

SMILES	inhibition at 1 µM (pERK level in H358 cells)	IC50 (H358 cells)
C=CC(=O)N1CC2(CCN(c3nc(N4CC(N5CC[S+]([O-])CC5)C4)nc4c(OCC(F)(F)F)c(-c5c(C)ccc6[nH]ncc56)c(C5CC5)cc34)CC2)C1 [Compound 26]	50 to 90%	300 to 1000 nM
C=CC(=O)N1CC2(CCN(c3nc(N4CC(N5CC6(CC6)C5)C4)nc4c(OCC(F)(F)F)c(-c5c(C)ccc6cn[nH]c56)c(C5CC5)cc34)CC2)C1 [Compound 109]	> 90%	< 300 nM
C=CC(=O)N1CC2(CCN(c3nc(N4CC(CC#N)(N5CCCC5)C4)nc4c(OCC(F)(F)F)c(-c5c(C)ccc6[nH]ncc56)c(C5CC5)cc34)CC2)C1 [Compound 55]	> 90%	< 300 nM
C=CC(=O)N1CC2(CCN(c3nc(N4CCC(N5CC6(CC6)C5)C4)nc4c(OCC(F)(F)F)c(-c5c(C)ccc6[nH]ncc56)c(C5CC5)cc34)CC2)C1 (centres unmarked) [Compound 37]	> 90%	< 300 nM
C=CC(=O)N1CC2(CCN(c3nc(N4CC5(CC(=C)CN5CC)C4)nc4c(OCC(F)(F)F)c(-c5c(C)ccc6[nH]ncc56)c(C5CC5)cc34)CC2)C1 [Compound 126]	> 90%	< 300 nM
C=CC(=O)N1CC2(CCN(c3nc(N4CC5(CCCN5C)C4)nc4c(OCC(F)(F)F)c(-c5c(C)ccc6[nH]ncc56)c(C=C)cc34)CC2)C1 [Compound 131]	> 90%	< 300 nM
C=CC(=O)N1CC2(CCN(c3nc(N4CC(CC#N)(N(C)CCO)C4)nc4c(OCC(F)(F)F)c(-c5c(C)ccc6[nH]ncc56)c(C5CC5)cc34)CC2)C1 [Compound 52]	> 90%	< 300 nM
C=CC(=O)N1CCC2(CC1)CN(c1nc(N3CC(N4CCC5(CC5)C4)C3)nc3c(OCC(F)(F)F)c(-c4c(C)ccc5[nH]ncc45)c(C4CC4)cc13)C2 [Compound 115]	> 90%	< 300 nM
C=CC(=O)N1CC2(CCN(c3nc(O[C@H]4C[C@H](N(C)C)C4)nc4c(OCC(F)(F)F)c(-c5c(C)ccc6[nH]ncc56)c(C5CC5)cc34)CC2)C1 [Compound 86]	50 to 90%	300 to 1000 nM
C=CC(=O)N1CC2(CCN(c3nc(N4CC(OCC5CC5)C4)nc4c(OCC(F)(F)F)c(-c5c(C)ccc6[nH]ncc56)c(C5CC5)cc34)CC2)C1 [Compound 17]	> 90%	< 300 nM
C=CC(=O)N1CC2(CCN(c3nc(N4CC(CO)C4)nc4c(OCC(F)(F)F)c(-c5c(C)ccc6[nH]ncc56)c(C5CC5)cc34)CC2)C1 [Compound 3]	50 to 90%	300 to 1000 nM
C=CC(=O)N1CC2(CCN(c3nc(N4CC5(CN(CCOC)CCO5)C4)nc4c(OCC(F)(F)F)c(-c5c(C)ccc6[nH]ncc56)c(C5CC5)cc34)CC2)C1 [Compound 82]	> 90%	< 300 nM
C=CC(=O)N1CC2(CCN(c3nc(N4CC(N5CC6(CC6)C5)C4)nc4c(OCC(F)(F)F)c(-c5c(C)ccc6[nH]ncc56)c(C=C)cc34)CC2)C1 [Compound 100]	> 90%	< 300 nM
C=CC(=O)N1CC2(CCN(c3nc(N4CC(N(CC)CCO)C4)nc4c(OCC(F)(F)F)c(-c5c(C)ccc6[nH]ncc56)c(C5CC5)cc34)CC2)C1 [Compound 22]	> 90%	< 300 nM
C=CC(=O)N1CC2(CCN(c3nc(N4CC5(CCCN5CC)C4)nc4c(OCC(F)(F)F)c(-c5c(C)ccc6[nH]ncc56)c(C5CC5)cc34)CC2)C1 [Compound 116]	> 90%	< 300 nM
C=CC(=O)N1CC2(CCN(c3nc(N4CC5(CCC5)C4)nc4c(OCC(F)(F)F)c(-c5c(C)ccc6[nH]ncc56)c(C5CC5)cc34)CC2)C1 [Compound 66]	50 to 90%	300 to 1000 nM
C=CC(=O)N1CC2(CCN(c3nc(N4CC(COC5CN(C)C5)C4)nc4c(OCC(F)(F)F)c(-c5c(C)ccc6[nH]ncc56)c(C5CC5)cc34)CC2)C1 [Compound 11]	> 90%	< 300 nM
C=CC(=O)N1CC2(CCN(c3nc(N4CC5(CCCN5C5CC5)C4)nc4c(OCC(F)(F)F)c(-c5c(C)ccc6[nH]ncc56)c(C5CC5)cc34)CC2)C1 [Compound 120]	> 90%	< 300 nM
